Blank lines part the entries; values can stand above or below the compound they belong to.
What was measured:
[1] = Human hepatocyte assay (metabolic stability); assay type: in vitro ADME; conditions: human hepatocytes, 37° C., 1.0×10^6 viable cells/mL; read-out: Clint (in vitro intrinsic clearance)
Procedure: The metabolic stability of compounds in human hepatocytes was assessed using the following protocol: • 1. Prepare 10 mM stock solutions of compound and control compounds in appropriate solvent (DMSO). Place incubation medium (L-15Medium) in a 37° C. water bath, and allow warming for at least 15 minutes prior to use. • 2. Add 80 μL of acetonitrile to each well of the 96-well deep well plate (quenching plate). • 3. In a new 96-well plate, dilute the 10 mM test compounds and the control compounds to 100 μM by combining 198 μL of acetonitrile and 2 μL of 10 mM stock. • 4. Remove a vial of cryopreserved (less than −150° C.) human hepatocytes (LiverPool™ 10 Donor Human hepatocytes obtained from Celsis IVT. Chicago, Ill. (Product No. S01205)) from storage, ensuring that vials remain at cryogenic temperatures until thawing process ensues. As quickly as possible, thaw the cells by placing the vial in a 37° C. water bath and gently shaking the vials. Vials should remain in water bath until all ice crystals have dissolved and are no longer visible. After thawing is completed, spray vial with 70% ethanol, transfer the vial to a bio-safety cabinet. • 5. Open the vial and pour the contents into the 50 mL conical tube containing thawing medium. Place the 50 mL conical tube into a centrifuge and spin at 100 g for 10 minutes. […] Using Cellometer® Vision, count cells and determine the viable cell density. Cells with poor viability (<80% viability) are not acceptable for use. Dilute cells with incubation medium to a working cell density of 1.0×10^6 viable cells/mL. • 7. Transfer 247.5 μL of hepatocytes into each well of a 96-well cell culture plate. Place the plate on Eppendorf Thermomixer Comfort plate shaker to allow the hepatocytes to warm for 10 minutes. • 8. Add 2.5 μL of 100 μM test compound or control compounds into an incubation well containing cells, mix to achieve a homogenous suspension at 0.5 min, which when achieved, will define the 0.5 min time point. At the 0.5 min time, transfer 20 μL incubated mixture to wells in a “Quenching plate” followed by vortexing. • 9. Incubate the plate at 37° C. at 900 rpm on an Eppendorf Thermomixer Comfort plate shaker. At 5, 15, 30, 45, 60, 80, 100 and 120 min, mix the incubation system and transfer samples of 20 μL incubated mixture at each time point to wells in a separate “Quenching plate” followed by vortexing. • 10. Centrifuge the quenching plates for 20 minutes at 4,000 rpm. 4 different compounds are pooled into one cassette and used for LC/MS/MS analysis.
All calculations are carried out using Microsoft Excel. Peak areas are determined from extracted ion chromatograms. In vitro intrinsic clearance (in vitro Clint, in μL/min/10^6 cells) of parent compound is determined by regression analysis of the Ln percent parent disappearance vs. time curve. The in vitro intrinsic clearance (in vitro Clint, in μL/min/10^6 cells) is determined from the slope value using the following equation and is shown in Table C:
V=incubation volume (0.25 mL);
N=number of hepatocytes per well (0.25×10 ^6 cells).

[2] = target: ERα receptor in MCF-7 human ductal carcinoma breast cell line (Homo sapiens (Human), UniProt P03372); test: MCF-7 ER down regulation assay (immuno-fluorescence); assay type: cell-based; conditions: MCF-7 cells; for DC50: 18-22 hours incubation, read-out: ER down regulation IC50 value; for % downregulation (in brackets) in ER down regulation assay: >90% unless otherwise stated
ERα receptor in MCF-7 human ductal carcinoma breast cell line, sequence (P03372 whole entry): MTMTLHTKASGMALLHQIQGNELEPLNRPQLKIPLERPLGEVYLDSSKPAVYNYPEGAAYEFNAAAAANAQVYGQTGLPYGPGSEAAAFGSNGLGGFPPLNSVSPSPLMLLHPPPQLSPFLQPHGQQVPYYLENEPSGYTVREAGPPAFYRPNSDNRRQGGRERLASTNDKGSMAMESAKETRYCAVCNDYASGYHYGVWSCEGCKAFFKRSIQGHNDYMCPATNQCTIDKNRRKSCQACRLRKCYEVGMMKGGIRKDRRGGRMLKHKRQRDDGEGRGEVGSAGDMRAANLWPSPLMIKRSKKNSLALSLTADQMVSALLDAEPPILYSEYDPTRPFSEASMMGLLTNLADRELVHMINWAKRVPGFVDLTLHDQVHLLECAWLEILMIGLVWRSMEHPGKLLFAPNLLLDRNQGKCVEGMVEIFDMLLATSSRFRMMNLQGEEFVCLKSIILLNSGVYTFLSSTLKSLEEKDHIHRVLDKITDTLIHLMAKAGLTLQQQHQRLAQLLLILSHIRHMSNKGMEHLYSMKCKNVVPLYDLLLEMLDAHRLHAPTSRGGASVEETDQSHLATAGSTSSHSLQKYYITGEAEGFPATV
Procedure: MCF-7 ER Down Regulation Assay
The ability of compounds to down-regulate Estrogen Receptor (ER) numbers was assessed in a cell based immuno-fluorescence assay using the MCF-7 human ductal carcinoma breast cell line. MCF-7 cells were revived directly from a cryovial (approx 5×10^6 cells) in Assay Medium (phenol red free Dulbecco's Modified Eagle's medium (DMEM) (Sigma D5921) containing 2mM L-Glutamine and 5% (v/v) Charcoal/Dextran treated foetal calf serum. Cells were syringed once using a sterile 18 G×1.5 inch (1.2×40 mm) broad gauge needle and cell density was measured using a Coulter Counter (Beckman). Cells were further diluted in Assay Medium to a density of 3.75×10^4 cells per mL and 40 μL per well added to transparent bottomed, black, tissue culture treated 384 well plates (Costar, No. 3712) using a Thermo Scientific Matrix WellMate or Thermo Multidrop. Following cell seeding, plates were incubated overnight at 37° C., 5% CO2 (Liconic carousel incubator). Test data was generated using the LabCyte Echo™ model 555 compound reformatter which is part of an automated workcell (Integrated Echo 2 workcell). 10 mM compound stock solutions of the test compounds were used to generate a 384 well compound dosing plate (Labcyte P-05525-CV1). […] 40 μΛ of DMSO added to wells in row P on the source plate allow for DMSO normalisation across the dose range. To dose the control wells 40 μL of DMSO was added to row O1 and 40 μL of 100 μM fulvestrant in DMSO was added to row O3 on the compound source plate. […] Compounds were dispensed onto the cell plates with a compound source plate prepared as above producing a 12 pt duplicate 3 μM to 3 pM dose range with 3 fold dilutions and one final 10 fold dilution using the Integrated Echo 2 workcell. […] Cells were fixed at room temperature for 20 mins before being washed two times with 250 μL PBS/Proclin (PBS with a Biocide preservative) using a BioTek platewasher, 40 μL of PBS/Proclin was then added to all wells and the plates stored at 4° C. The fixing method described above was carried out on the Integrated Echo 2 workcell. Immunostaining was performed using an automated AutoElisa workcell. The PBS/Proclin was aspirated from all wells and the cells permeabilised with 40 μL PBS containing 0.5% Tween™ 20 (v/v) for 1 hour at room temperature. The plates were washed three times in 250 μL of PBS/0.05% (v/v) Tween 20 with Proclin (PBST with a Biocide preservative) and then 20 μL of ERα (SP1) Rabbit monoclonal antibody (Thermofisher) 1:1000 in PBS/Tween™/3% (w/v) Bovine Serum Albumin was added. The plates were incubated overnight at 4° C. (Liconic carousel incubator) and then washed three times in 250 μL of PBS/0.05% (v/v) Tween™ 20 with Proclin (PBST). The plates were then incubated with 20 μL/well of a goat anti-rabbit IgG AlexaFluor 594 or goat anti-rabbit AlexaFluor 488 antibody (Molecular Probes) with Hoechst at 1:5000 in PBS/Tween™/3% (w/v) Bovine Serum Albumin for lhour at room temperature. The plates were then washed three times in 250 μL of PBS/0.05% (v/v) Tween™ 20 with Proclin (PBST with a Biocide preservative). 20 μL of PBS was added to each well and the plates covered with a black plate seal and stored at 4° C. before being read. Plates were read using a Cellomics Arrayscan reading the 594 nm (24 hr time point) or 488 nm (5 hr timepoint) fluorescence to measure the ERα receptor level in each well. The mean total intensity was normalized for cell number giving the total intensity per cell.

DC50 [2]: 0.16 nM | % downregulation (in brackets) in ER down regulation assay [2]: 80%
SMILES: CC(C)(F)CN1[C@H](C(F)F)Cc2c(ccc3[nH]ncc23)[C@@]1(C)c1c(F)cc(OCCN2CC(CF)C2)cc1F [Example 4, (6S,8S)-6-(2,6-difluoro-4-(2-(3-(fluoromethyl)azetidin-1-yl)ethoxy)phenyl)-8-(difluoromethyl)-7-(2-fluoro-2-methylpropyl)-6-methyl-6,7,8,9-tetrahydro-3H-pyrazolo[4,3-f]isoquinoline]
hepatocyte CLint at 1 µM [1]: 10 µL/min/1e6 cells

DC50 [2]: 0.35 nM
SMILES: C[C@@H]1Cc2c(ccc3[nH]ncc23)[C@@H](c2ccc(OCCN3CC(CF)C3)cc2)N1CC1(F)CC1 [Example 29, (6R,8R)-7-((1-fluorocyclopropyl)methyl)-6-(4-(2-(3-(fluoromethyl)azetidin-1-yl)ethoxy)phenyl)-8-methyl-6,7,8,9-tetrahydro-3H-pyrazolo[4,3-f]isoquinoline]
hepatocyte CLint at 1 µM [1]: 12 µL/min/1e6 cells

DC50 [2]: 0.087 nM
SMILES: C[C@@H]1Cc2c(ccc3[nH]ncc23)[C@@](C)(c2ccc(OCCN3CC(CF)C3)cc2)N1CC1(F)CC1 [Example 30, (6R,8R)-7-((1-fluorocyclopropyl)methyl)-6-(4-(2-(3-(fluoromethyl)azetidin-1-yl)ethoxy)phenyl)-6,8-dimethyl-6,7,8,9-tetrahydro-3H-pyrazolo[4,3-f]isoquinoline]
hepatocyte CLint at 1 µM [1]: 13 µL/min/1e6 cells

DC50 [2]: 0.2 nM
SMILES: C[C@@H]1Cc2c(ccc3[nH]ncc23)[C@@H](c2ccc(OCCN3CC(CF)C3)cc2)N1CC1(F)COC1 [Example 31, (6R,8R)-6-(4-(2-(3-(fluoromethyl)azetidin-1-yl)ethoxy)phenyl)-7-((3-fluorooxetan-3-yl)methyl)-8-methyl-6,7,8,9-tetrahydro-3H-pyrazolo[4,3-f]isoquinoline]
hepatocyte CLint at 1 µM [1]: 38 µL/min/1e6 cells

DC50 [2]: 0.076 nM
SMILES: C[C@@H]1Cc2c(ccc3[nH]ncc23)[C@@](C)(c2ccc(OCCN3CC(CF)C3)cc2)N1CC1(F)COC1 [Example 32, (6R,8R)-6-(4-(2-(3-(fluoromethyl)azetidin-1-yl)ethoxy)phenyl)-7-((3-fluorooxetan-3-yl)methyl)-6,8-dimethyl-6,7,8,9-tetrahydro-3H-pyrazolo[4,3-f]isoquinoline]
hepatocyte CLint at 1 µM [1]: 29 µL/min/1e6 cells

DC50 [2]: 0.26 nM
SMILES: C[C@@H]1Cc2c(ccc3[nH]ncc23)[C@@H](c2c(F)cc(OCCN3CC(C(F)F)C3)cc2F)N1CC(C)(C)F [Example 38, (6S,8R)-6-(4-(2-(3-(difluoromethyl)azetidin-1-yl)ethoxy)-2,6-difluorophenyl)-7-(2-fluoro-2-methylpropyl)-8-methyl-6,7,8,9-tetrahydro-3H-pyrazolo[4,3-f]isoquinoline]
hepatocyte CLint at 1 µM [1]: 15 µL/min/1e6 cells

DC50 [2]: 0.28 nM | % downregulation (in brackets) in ER down regulation assay [2]: 86%
SMILES: C[C@@H]1Cc2c(ccc3[nH]ncc23)[C@@H](c2c(F)cc(NCCN3CC(CF)C3)cc2F)N1CC(C)(C)F [Example 47, 3,5-difluoro-4-((6S,8R)-7-(2-fluoro-2-methylpropyl)-8-methyl-6,7,8,9-tetrahydro-3H-pyrazolo[4,3-f]isoquinolin-6-yl)-N-(2-(3-(fluoromethyl)azetidin-1-yl)ethyl)aniline]
hepatocyte CLint at 1 µM [1]: 8 µL/min/1e6 cells

Continued, compound first:

SMILES: C[C@@H]1Cc2c(ccc3[nH]ncc23)[C@@H](c2c(F)cc(OCCN3CC(CF)C3)cc2F)N1CC(C)(C)F [Example 1, (6S,8R)-6-(2,6-difluoro-4-(2-(3-(fluoromethyl)azetidin-1-yl)ethoxy)phenyl)-7-(2-fluoro-2-methylpropyl)-8-methyl-6,7,8,9-tetrahydro-3H-pyrazolo[4,3-f]isoquinoline]
hepatocyte CLint at 1 µM [1]: 8 µL/min/1e6 cells | DC50 [2]: 0.097 nM

SMILES: C[C@@H]1Cc2c(ccc3[nH]ncc23)[C@@](C)(c2c(F)cc(OCCN3CC(CF)C3)cc2F)N1CC(C)(C)F [Example 2, (6S,8R)-6-(2,6-difluoro-4-(2-(3-(fluoromethyl)azetidin-1-yl)ethoxy)phenyl)-7-(2-fluoro-2-methylpropyl)-6,8-dimethyl-6,7,8,9-tetrahydro-3H-pyrazolo[4,3-f]isoquinoline]
hepatocyte CLint at 1 µM [1]: 8 µL/min/1e6 cells | DC50 [2]: 0.088 nM

SMILES: CC(C)(F)CN1[C@H](c2c(F)cc(OCCN3CC(CF)C3)cc2F)c2ccc3[nH]ncc3c2C[C@H]1C(F)F [Example 3, (6S,8S)-6-(2,6-difluoro-4-(2-(3-(fluoromethyl)azetidin-1-yl)ethoxy)phenyl)-8-(difluoromethyl)-7-(2-fluoro-2-methylpropyl)-6,7,8,9-tetrahydro-3H-pyrazolo[4,3-f]isoquinoline]
hepatocyte CLint at 1 µM [1]: 16 µL/min/1e6 cells | DC50 [2]: 0.16 nM

SMILES: CC(C)CN1[C@H](c2ccc(OCCN3CC(CF)C3)cc2)c2ccc3[nH]ncc3c2C[C@H]1C [Example 28, (6R,8R)-6-(4-(2-(3-(fluoromethyl)azetidin-1-yl)ethoxy)phenyl)-7-isobutyl-8-methyl-6,7,8,9-tetrahydro-3H-pyrazolo[4,3-f]isoquinoline]
hepatocyte CLint at 1 µM [1]: 8 µL/min/1e6 cells | DC50 [2]: 0.14 nM

SMILES: CC(C)CN1[C@H](c2c(F)cc(OCCN3CC(CF)C3)cc2F)c2ccc3[nH]ncc3c2C[C@H]1C [Example 33, (6S,8R)-6-(2,6-difluoro-4-(2-(3-(fluoromethyl)azetidin-1-yl)ethoxy)phenyl)-7-isobutyl-8-methyl-6,7,8,9-tetrahydro-3H-pyrazolo[4,3-f]isoquinoline]
hepatocyte CLint at 1 µM [1]: 9 µL/min/1e6 cells | DC50 [2]: 0.21 nM

SMILES: CC(C)CN1[C@H](c2ccc(OCCN3CC(CF)C3)cn2)c2ccc3[nH]ncc3c2C[C@H]1C [Example 40, (6S,8R)-6-(5-(2-(3-(fluoromethyl)azetidin-1-yl)ethoxy)pyridin-2-yl)-7-isobutyl-8-methyl-6,7,8,9-tetrahydro-3H-pyrazolo[4,3-f]isoquinoline]
hepatocyte CLint at 1 µM [1]: 8 µL/min/1e6 cells | DC50 [2]: 0.36 nM

— US10125135B2, “Chemical compounds” (AstraZeneca AB, priority 2016, dated 2018)
